Laboratory results reported in US10820823B2, “Evaluation of inhibitory circuit and use thereof” (INTER-UNIVERSITY RESEARCH INSTITUTE C[…] INSTITUTES OF …, priority 2015, dated 2020).

How the values were obtained:
[1] = system: GABA-A early inhibition due to basket cells; details: slice specimens; cited from earlier work
[2] = system: inhibitory circuit (GABA-A early inhibition); assay: Inhibition rate (prepulse attenuation) of auditory change-related brain activity by magnetoencephalography, before and after drug administration; format: in vivo, human; details: for effect of drug on inhibition: 5 mg single oral administration
Protocol: In the present embodiment, an action of inhibitory circuits of 13 humans was evaluated using an excitatory circuit for a change response to a sound pressure change in an auditory system. As for the change response, when a sudden slight increase in sound pressure (10 dB) is generated in a background sound in which a short click sound (70 dB) of 1 ms is continuously generated at a frequency of 100 Hz, the human brain reacts thereto with very high sensitivity and a remarkable brain response is triggered.
The evaluation system included a stimulus output unit and a brain activity measurement unit.
Full-head measurement with the cerebral magnetic field measurement unit was performed using a magnetoencephalograph (306 channel magnetoencephalograph (Vector View, Neuromag, Helsinki, Finland)).
Three kinds of stimuli, namely, the test stimulus, the preceding stimulus, and the test+preceding stimulus were sequentially applied to the subject at regular intervals from the stimulus output irnit through an insert earphone from the start of the test, and brain activity induced by the activation of the excitatory circuit at this time was measured as a cerebral magnetic field. […] A predetermined number of trials could be designated in the cerebral magnetic field measurement unit, addition was performed automatically, and an attenuation rate (inhibition rate) was obtained from the amplitude of the addition waveform.
Effect of diazepam (5 mg single oral administration) on inhibition was examined by comparing the inhibition rates before and after the administration of the drug to two subjects of different types by the same recording procedure as in first embodiment. The amplitude of the response was taken between vertices of a component of 50 ms and a component of 100 ms (black triangles).

CN1C(=O)CN=C(c2ccccc2)c2cc(Cl)ccc21 [diazepam]
effect on GABA-A early inhibition due to basket cells [1]: enhances | change of inhibition after the administration ([2]; Subject 1 (strong inhibition before administration), diazepam 5 mg single oral administration, 1 hour after administration): little change | effect of drug on inhibition ([2]; Subject 1): small effect | inhibition rate after the administration ([2]; Subject 2 (weak early inhibition before administration), diazepam 5 mg single oral administration, 1 hour after administration): 45% | effect of drug on inhibition ([2]; Subject 2): strong effect
